# Source: patent publication US11352354B2, “Substituted penta-fused hexa-heterocyclic compounds, preparation method therefor, drug combination and use thereof” (Xiamen University, priority 2017, dated 2022)
# Tests used:
# [1] = tested on: JeKo-1 cells; assay: Tumor cell growth inhibition by MTS method, JeKo-1; type: cell-based; conditions: 5 days of culture; for inhibition at 10 µM: read-out: cell growth inhibition rate of compounds at 10 μM
# Protocol: III. Determination of IC50 Value of Compound for Inhibiting Tumor Cell Growth by MTS Method
# 1. Cell plating: cells in logarithmic growth phase were counted and inoculated in a 96-well plate (20000 cells per well).
# 2. Administrating agent to cell: 10 mM compound mother solution in DMSO was subjected to 3 fold-gradient dilution, to set 8 concentrations, which were then added to various wells, with three replicates for each concentration, and three blank wells (only culture medium) and three negative controls (containing 0.1% DMSO) on each plate.
# 3. […] The OD value at 490 nm was measured with microplate reader OD490. The cell growth inhibition rate was calculated by the following formula: Cell growth inhibition rate %=1−(ODexperimental group−ODblank group)/(ODnegative group−ODblank group)×100%
# The semi-inhibitory concentration IC50 of the compound acting on cell growth was calculated using GradPad Prism 5 software according to the measured cell growth inhibition rate.
# In the following table it lists the IC50 value or the inhibition rates of some compounds at 10 μM against JeKo-1 cells
# [2] = tested on: MDA-MB-231 cells; assay: Vacuolation of MDA-MB-231 cells caused by inhibition of compounds on PIKfyve (microscopy); type: cell-based; conditions: MDA-MB-231 cells
# Excerpt: I. Determination of Vacuolation of MDA-MB-231 Cells Caused by Inhibition of Compounds on PIKfyve
# When the activity of pikfyve kinase is inhibited, vacuoles will be produced in cytoplasm. By observing the number of vacuoles under a microscope, the ability of compounds to inhibit the activity of pikfyve kinase can be known.
# 1. Cell plating: cells in logarithmic growth phase were made into a single cell suspension, counted with a cell counter and diluted to a cell concentration of about 2×10^5/mL. Then, the cells were inoculated into a 12-well plate, and cultured in a 37° C., 5% CO2 incubator.
# 3. Vacuolation test: after 24 and 48 hours of culture, photos were taken under an […] to observe the degree of vacuolation.
# (In the table, “+” represents the degree of vacuolation; more “+” indicates more obvious vacuolation; “−” represents no vacuolation)
SMILES,"IC50 ([1]; Homo sapiens, JeKo-1, 120 h) [nM]","degree of vacuolation, 1 μM, 48 h [2]","degree of vacuolation, 10 μM, 48 h [2]","inhibition at 10 µM ([1]; Homo sapiens, JeKo-1, 120 h) [%]","degree of vacuolation, 1 μM, 24 h [2]","degree of vacuolation, 10 μM, 24 h [2]",IC50 [1] [nM]
Cc1ccc(C(=O)Nc2cccc(C(F)(F)F)c2)cc1Nc1nc(-c2cccnc2)c2cnn(C)c2n1 [III-c-1],2000,,,,,,
Cc1ccc(C(=O)Nc2cccc(C(F)(F)F)c2)cc1Nc1nc(-c2cccnc2)nc2[nH]cnc12 [IV-a-3],,+,+,16.2,,,
Cc1ccc(NC(=O)c2cccc(C(F)(F)F)c2)cc1Nc1cc(-c2cccnc2)nc2sccc12 [VIII-a-3],2010,++,++,,++,++,
O=C(Nc1cccc(Nc2cc(-c3ccncc3)nc3sccc23)c1)c1cccc(C(F)(F)F)c1 [VIII-a-2],3260,++,++,,++,++,
Cc1ccc(C(=O)Nc2cccc(F)c2)cc1Nc1nc(-c2cccnc2)cn2c(Br)cnc12 [VI-b-5],,,,16.9,,,
Cc1ccc(C(=O)Nc2cccc(C(F)(F)F)c2)cc1Nc1cc(-c2cccnc2)nc2c1ccn2C [I-b-4],,−,,,−,,1330
Cc1ccc(NC(=O)c2cccc(C(F)(F)F)c2)cc1Nc1cc(-c2ccncc2)nc2sccc12 [VIII-a-4],,+,+,17.3,+,+,
Cc1ccc(C(=O)Nc2cccc(C(F)(F)F)c2)cc1Nc1cc(-c2cccnc2)nc2[nH]ccc12 [I-a-20],2540,+++,++++,,+++,++++,
Cc1ccc(NC(=O)c2cccc(C(F)(F)F)c2)cc1Nc1nc(-c2cccnc2)cn2c(Br)cnc12 [VI-b-1],,,,17.5,,,
Cc1ccc(C(=O)Nc2cccc(C(F)(F)F)c2)cc1Nc1cc(-c2cccnc2)nc2c1ccn2C [I-b-3],,+,++,,+,++,2680
Cn1ncc2c(NCc3cccnc3)nc(-c3cccc(NC(=S)Nc4cccc(C(F)(F)F)c4)c3)nc21 [III-b-15],,−,+,24.1,−,+,
Cc1ccc(NC(=O)c2cccc(C(F)(F)F)c2)cc1Nc1nc(-c2cccnc2)cn2ccnc12 [VI-a-1],7490,,,,,,
Cc1ccc(C(=O)Nc2ccc(CN3CCN(C)CC3)c(C(F)(F)F)c2)cc1Nc1cc(-c2ccncc2)nc2[nH]ccc12 [I-a-25],2130,+,+,,+,+,
Cc1ccc(NC(=O)c2cccc(C(F)(F)F)c2)cc1Nc1cc(-c2cccnc2)nc2c1ccn2C [I-b-1],2770,++,+++,,++,+++,
Cc1ccc(C(=O)Nc2cccc(C(F)(F)F)c2)cc1Nc1nc(-c2cccnc2)cn2c(Br)cnc12 [VI-b-2],,,,14.7,,,
CN1CCN(Cc2cc(NC(=O)c3cccc(Nc4cc(-c5cccnc5)nc5[nH]ccc45)c3)cc(C(F)(F)F)c2)CC1 [I-a-26],,−,−,,−,−,
Cc1ccc(NC(=O)c2ccc(CN3CCOCC3)c(C(F)(F)F)c2)cc1Nc1nc(-c2cccnc2)cn2c(Br)cnc12 [VI-b-6],,−,−,,−,−,
